Here are results for 3 molecules from publication PMC6547681 (Nature Communications, 2019).

Values joined by “and” are separate entries in the source; they are usually repeats but may differ in a detail not shown here. Equal values may be shown once. Read-outs that look alike come from different tables or passages of the source. Where no end group is shown, it is not given here.

Data set [1] relates to KMS-12-PE cells, Parental. The data set is described as follows: CellTiter-Glo cell viability, KMS-12-PE parental cells. In kind it is cell-based. To be noted: 3 independent experiments in duplicate. A general note: Cellular ATP, detected with luciferase, serves as a proxy for viable cell number.
For a further data set, the target named is BCL-2 F104C (Homo sapiens, UniProt P10415, F104C). As to the kind of experiment: SPR direct binding to immobilised BH3 peptides (kinetic fit), BCL-2 F104C. To be noted: for Kd: BCL-2 F104C. Here is the method: (§1) SPR experiments were performed as previously described. […] The lowest concentrations used in direct binding experiments were 1 nM for BIAcore 4000 and 0.1 nM for BIAcore S200 instruments, concentrations below these were below the sensitivity thresholds for the instruments. […] Direct binding experiments were fitted to a 1:1 binding site kinetic model, fitting on and off rates, in BIAevaluation software. For competition experiments steady-state responses were determined in BIAevaluation software according to the software defaults in affinity evaluation mode averaging responses for 5 sec. […] All affinity measurements were performed in at least two independent experiments using independent protein preparations.
(§2) Raw data (coloured curves) were fitted (black curves) to a 1 site specific kinetic model to determine on and off rates and the equilibrium binding constant KD.
(§3) The BCL-2 mutant proteins were diluted in a 2-fold dilution series, concentration ranges for curves are indicated. All experiments shown were performed on a BIAcore 4000, with the exception of (a) which was performed on a BIAcore S200.
(§4) (1 picture or pasted object on this page, not shown here)

Data set [2] has as its target BCL-2 F104L. To be noted: cited from earlier work.
For data set [3], the target named is BCL-2 WT. To be noted: cited from earlier work.
Data set [4] has as its target BCL-2 G101V/E152A double mutant (Homo sapiens, UniProt P10415, E152A/G101V). As to the kind of experiment: SPR direct binding to immobilised BH3 peptides (kinetic fit), BCL-2 G101V/E152A double mutant. How it is done:
as §1, §2, §3, §4

For data set [5], the target named is BCL-2 G101V. The following applies: cited from earlier work.
Another data set concerns the target BCL-2 E152A (Homo sapiens, UniProt P10415, E152A). As to the kind of experiment: SPR direct binding to immobilised BH3 peptides (kinetic fit), BCL-2 E152A. How it is done: as §1, §2, §3, §4
For data set [6], the target named is BCL-2 F104L. The following applies: listed as Ven, cited from earlier work.
Data set [7] concerns the target BCL-2 WT. The following applies: competition vs BIMBH3 SPR surface, mean ± SD, n=3, previously reported, listed as Ven; cited from earlier work.
The test system of data set [8] is BCL-2 G101V. The following applies: G101V relative to WT; cited from earlier work.
Setting [9] is: BCL-2 F104C binding BAXBH3, 1:1 kinetic fit, each independent experiment.
Setting [10] is: read-out: BAXBH3 KD (mean), direct binding, kinetic fit, mean ± SD, n ≥ 2.
Where [11] appears, read: read-out: BAXBH3 KD (mean), direct binding, kinetic fit, mean ± SD, n ≥ 2, previously reported.
Where [12] appears, read: read-out: BAXBH3 KD, single independent experiments, independent experiments 1-3, previously reported.

BCL-2 G101V/E152A double mutant, sequence (P10415 with tags, fused parts or gaps G101V/E152A): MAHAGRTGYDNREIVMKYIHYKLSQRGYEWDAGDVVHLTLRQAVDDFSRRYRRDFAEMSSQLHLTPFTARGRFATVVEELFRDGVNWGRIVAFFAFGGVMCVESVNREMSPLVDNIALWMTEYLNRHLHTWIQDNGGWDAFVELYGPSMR
BCL-2 F104C, sequence (P10415 with tags, fused parts or gaps F104C): as the sequence (P10415 with tags, fused parts or gaps G101V/E152A) above, with V44G, F47C, A95E counted along it
BCL-2 E152A, sequence (P10415 with tags, fused parts or gaps E152A): as the sequence (P10415 with tags, fused parts or gaps G101V/E152A) above, with V44G counted along it

Turning to `O=C(c1cc(-c2cc3c(cc2C(=O)N2Cc4ccccc4C[C@H]2CN2CCOCC2)OCO3)n2c1CCCC2)N(c1ccccc1)c1ccc(O)cc1` [Servier BCL2i], the “Raw data values in Figure 4a (cell viability)” value in data set [1] (Servier BCL2i concentration 0.002441 μM, 0.002441 µM) is 91.4402 and 90.8859 and 86.2314 and 89.8168 and 85.5276 and 83.3911; in data set [1] (Servier BCL2i concentration 0.019531 μM, 0.019531 µM) it was 79.2854 and 83.3303 and 62.6836 and 66.1433 and 63.9237 and 63.1413; in data set [1] (Servier BCL2i concentration 0.15625 μM, 0.15625 µM), 41.8118 and 47.4883 and 34.039 and 38.7009 and 36.6962 and 37.7057; in data set [1] (Servier BCL2i concentration 10 μM, 10 µM), 0.8691 and 0.8133 and 1.2479 and 1.255 and 1.1789 and 1.099.

In the case of “BAXBH3: biotinylated BAXBH3 peptide ADASTKKLSECLKRIGDELDSNMELQRMIAA immobilised on SPR sensor chip (also: biotinylated, place not given here)”, in the data set with BCL-2 F104C (setting [9]), the ka is 1.67e+06 M⁻¹ s⁻¹ and 2e+06 M⁻¹ s⁻¹ and 2.06e+06 M⁻¹ s⁻¹. The kd in the data set with BCL-2 F104C (setting [9]) was 0.00709 s⁻¹ and 0.00791 s⁻¹ and 0.0079 s⁻¹. The Kd (as a rule, the equilibrium constant for the complex coming apart) in the data set with BCL-2 F104C (setting [10]) was 4 nM and 4.02 nM; with BCL-2 F104C (read-out: BAXBH3 KD, single independent experiments, independent experiments 1-3), 4.25 nM and 3.96 nM and 3.84 nM; at BCL-2 F104L [2] (setting [11]), 6.1 nM and 6.08 nM; at BCL-2 F104L [2] (setting [12]) it was 7.24 nM and 5.46 nM and 5.55 nM; at BCL-2 WT [3] (setting [11]), 1.4 nM and 1.37 nM; on BCL-2 WT [3] (setting [12]) it was 1.6 nM and 1.14 nM and 1.36 nM. In addition, the Kd in [4] (read-out: BAXBH3 KD (mean), BCL-2 G101V/E152A, direct binding, kinetic fit, mean ± SD, n ≥ 2) was 5.5 nM and 5.51 nM; in data set [4] (read-out: BAXBH3 KD, single independent experiments, BCL-2 G101V, E152A (DM), independent experiments 1-2), 5.7 nM and 5.31 nM; at BCL-2 G101V [5] (setting [11]) it was 12 nM and 11.7 nM; at BCL-2 G101V [5] (setting [12]), 9.91 nM and 12.9 nM and 12.2 nM; with BCL-2 E152A (setting [10]), 3.6 nM and 3.55 nM; with BCL-2 E152A (read-out: BAXBH3 KD, single independent experiments, independent experiments 1-2) it was 4.18 nM and 2.93 nM.

`CC1(C)CCC(CN2CCN(c3ccc(C(=O)NS(=O)(=O)c4ccc(NCC5CCOCC5)c([N+](=O)[O-])c4)c(Oc4cnc5[nH]ccc5c4)c3)CC2)=C(c2ccc(Cl)cc2)C1` [venetoclax]: the Ki (as a rule, the dissociation constant of the complex between target and ligand, obtained from inhibition or displacement) is 0.46 nM and 0.456 nM on BCL-2 F104L [6] (competition vs BIMBH3 SPR surface, mean ± SD, n=3, previously reported, read-out: Ven KI (mean)); 0.358 nM and 0.584 nM and 0.425 nM on BCL-2 F104L [6] (independent experiments 1-3, previously reported, read-out: Ven KI, single independent experiments); 0.018 nM and 0.0181 nM at BCL-2 WT [7]. For the same molecule, the “reduction of affinity of the drug for BCL-2 by the G101V mutation” value with BCL-2 G101V [8] is about 180 fold.
